{
  "source": "patent US8530680B2",
  "about": "“System and method for controlling growth of microorganisms with brominated furanones” (Syracuse University, priority 2008, dated 2013)",
  "key": {"[1]": {"tested_on": "C. albicans strain SC5341 gene expression", "test": "DNA microarray gene expression of C. albicans after BF1 treatment", "assay_type": "cell-based, Candida albicans", "conditions": "for Induction expression ratio: 3 μg/mL BF1, 45 minutes", "experimental": "An overnight culture of C. albicans strain SC5341 grown in SD medium was sub-cultured in 25 mL of the same medium to an initial OD600 of 0.005 and grown till the OD600 was 1.0. The culture was diluted using fresh SD medium to a volume of 100 mL with an initial OD600 of 0.6, and it was grown till the OD600 reached 1.0, which took approximately 2 hours. Then the culture was split into two equal portions, with 3 μg/mL of BF1 added to the first one and the same amount of ethanol added to the second one to eliminate the effects of ethanol. […] Forty-five minutes after BF1 addition, the cells were harvested by centrifugation at 13,200 rpm at 4° C. for 30 sec and stored at −80° C. until RNA isolation. To lyse the cells, 1.5 mL of Trizol reagent (Invitrogen® Co., Carlsbad, Calif.) and 0.5 mL of 0.5 mm glass beads were added to the frozen tubes containing C. albicans cell pellets. The tubes were closed tightly and beaten for 30 sec at 4,800 oscillations/minute using a mini bead beater (Biospec Products Inc., Bartlesville, Okla.). The total RNA was extracted using Trizol reagent by following the manufacture's protocol. The extracted RNA was further cleaned up using an RNeasy mini-kit (QIAGEN® Inc., Valencia, Calif.), including on-column DNA digestion with RNase-free DNase I. The RNA yield was quantified by OD260 reading, and the RNA integrity was checked, using agarose gel electrophoresis. The RNA samples were sent to the DNA MicroArray Lab at the Biotechnology Research Institute, National Research Council of Canada (Montreal, Canada) to further check the integrity and DNA microarray hybridization. RNA from a control sample and that from a furanone-treated sample were hybridized to each array. A total of four DNA microarrays were used and four biological replicates were tested. The data were analyzed using Genespring GX version 7.3 (Agilent Technologies®, Santa Clara Calif.). […] Gene functions were annotated by searching the Candida Genome Database at (www.candidagenome.org)."}, "[2]": {"tested_on": "orf19.2175 (CPD1) expression in C. albicans", "test": "RNA dot blotting of C. albicans genes after BF1 treatment", "assay_type": "cell-based, Candida albicans", "conditions": "3 μg/mL BF1", "experimental": "To corroborate the microarray results, four genes were checked with RNA dot blotting for their expression levels under the same conditions tested in microarray analysis: orf19.5604 (MDR1), orf19.2175 (CPD1), orf19.2896 (SOU1) and orf19.5565. The total RNA of a control sample without furanone was used to synthesize complementary DNA (cDNA) using OneStep RT-PCR Kit (QIAGEN Inc.) by following the manufacture's protocol. The annealing temperature was optimized based on the primers and was performed at 50° C. for 1 minute in each cycle. The length of the template cDNA was 457 bp, 364 bp, 455 bp and 423 bp for orf19.5604 (MDR1), orf19.2175 (CPD1), orf19.2896 (SOU1) and orf19.5565, respectively.\nThe DNA probes labeled with Digoxigenin (DIG)-dUTP were then generated using the same primer sets and PCR DIG Probe Synthesis Kit (Roche® Applied Science, Mannheim, Germany) by following the manufacture's protocol except that the annealing temperature was 48° C. for orf19.2175 and orf19.5565, and 51° C. for orf19.2896 and orf19.5604. Total RNA was isolated from cultures treated under the same conditions as in DNA microarray experiments. […] The light signal was recorded using Biomax X-ray films from Kodak (Rochester, N.Y.). […]"}},
  "data": [
    {"smiles": "CCCCC1=C(Br)/C(=C/Br)OC1=O", "note": "[BF1, 4-bromo-5Z-(bromomethylene)-3-butylfuran-2-one]", "values": [
      {"measurement": "Induction expression ratio", "setting": "[1]; orf19.113 CIP1", "value": 3.17},
      {"measurement": "Induction expression ratio", "setting": "[1]; orf19.1167", "value": 1.65},
      {"measurement": "Induction expression ratio", "setting": "[1]; orf19.1237 ARO9", "value": 1.87},
      {"measurement": "Induction expression ratio", "setting": "[1]; orf19.125 EBP1", "value": 13.87},
      {"measurement": "Induction expression ratio", "setting": "[1]; orf19.1286", "value": 1.97},
      {"measurement": "Induction expression ratio", "setting": "[1]; orf19.1421 DAL3", "value": 1.58},
      {"measurement": "Induction expression ratio", "setting": "[1]; orf19.1783 YOR1", "value": 1.78},
      {"measurement": "induction of gene CPD1 in DNA microarray", "setting": "[1]; orf19.2175 (CPD1), 3 μg/mL BF1", "value": 12.94, "unit": "fold"},
      {"measurement": "Induction expression ratio", "setting": "[1]; orf19.2175", "value": 10.94},
      {"measurement": "Induction expression ratio", "setting": "[1]; orf19.2262", "value": 2.68},
      {"measurement": "Induction expression ratio", "setting": "[1]; orf19.23 RTA3", "value": 5.01},
      {"measurement": "Induction expression ratio", "setting": "[1]; orf19.2396 IFR2", "value": 2.05},
      {"measurement": "Induction expression ratio", "setting": "[1]; orf19.2693", "value": 3.97},
      {"measurement": "Induction expression ratio", "setting": "[1]; orf19.2825 DRE2", "value": 1.69},
      {"measurement": "Induction expression ratio", "setting": "[1]; orf19.3131 OYE32", "value": 12.89},
      {"measurement": "Induction expression ratio", "setting": "[1]; orf19.3139", "value": 8.82},
      {"measurement": "Induction expression ratio", "setting": "[1]; orf19.320", "value": 14.98},
      {"measurement": "Induction expression ratio", "setting": "[1]; orf19.3234 OYE22", "value": 4.00},
      {"measurement": "Induction expression ratio", "setting": "[1]; orf19.3340 SOD2", "value": 1.72},
      {"measurement": "Induction expression ratio", "setting": "[1]; orf19.3433 OYE23", "value": 20.04},
      {"measurement": "Induction expression ratio", "setting": "[1]; orf19.3443 OYE2", "value": 3.30},
      {"measurement": "Induction expression ratio", "setting": "[1]; orf19.3707 YHB1", "value": 2.65},
      {"measurement": "Induction expression ratio", "setting": "[1]; orf19.4940 HIP1", "value": 2.57},
      {"measurement": "Induction expression ratio", "setting": "[1]; orf19.5059 GCS1", "value": 1.96},
      {"measurement": "Induction expression ratio", "setting": "[1]; orf19.5604 MDR1", "value": 5.36},
      {"measurement": "Induction expression ratio", "setting": "[1]; orf19.5992 WOR2", "value": 1.54},
      {"measurement": "Induction expression ratio", "setting": "[1]; orf19.6059 TTR2", "value": 1.80},
      {"measurement": "Induction expression ratio", "setting": "[1]; orf19.6275", "value": 1.94},
      {"measurement": "Induction expression ratio", "setting": "[1]; orf19.6869", "value": 4.21},
      {"measurement": "Induction expression ratio", "setting": "[1]; orf19.7306", "value": 2.87},
      {"measurement": "Induction expression ratio", "setting": "[1]; orf19.7531", "value": 2.53},
      {"measurement": "Induction expression ratio", "setting": "[1]; orf19.896 CHK1", "value": 1.54},
      {"measurement": "Induction expression ratio", "setting": "[1]; orf19.93", "value": 1.53},
      {"measurement": "Induction expression ratio", "setting": "[1]; repressed gene orf19.1097 ALS4", "value": 0.42},
      {"measurement": "Induction expression ratio", "setting": "[1]; repressed gene orf19.1344", "value": 0.60},
      {"measurement": "Induction expression ratio", "setting": "[1]; repressed gene orf19.270", "value": 0.47},
      {"measurement": "Induction expression ratio", "setting": "[1]; repressed gene orf19.2896 SOU1", "value": 0.60},
      {"measurement": "Induction expression ratio", "setting": "[1]; repressed gene orf19.2959.1", "value": 0.64},
      {"measurement": "Induction expression ratio", "setting": "[1]; repressed gene orf19.3066 ENG1", "value": 0.57},
      {"measurement": "Induction expression ratio", "setting": "[1]; repressed gene orf19.3629 DSE1", "value": 0.66},
      {"measurement": "Induction expression ratio", "setting": "[1]; repressed gene orf19.3794 CSR1", "value": 0.60},
      {"measurement": "Induction expression ratio", "setting": "[1]; repressed gene orf19.4337 ESBP6", "value": 0.65},
      {"measurement": "Induction expression ratio", "setting": "[1]; repressed gene orf19.4737 TPO3", "value": 0.60},
      {"measurement": "Induction expression ratio", "setting": "[1]; repressed gene orf19.5170 ENA21", "value": 0.61},
      {"measurement": "Induction expression ratio", "setting": "[1]; repressed gene orf19.5193 FMA1", "value": 0.61},
      {"measurement": "Induction expression ratio", "setting": "[1]; repressed gene orf19.5267", "value": 0.56},
      {"measurement": "Induction expression ratio", "setting": "[1]; repressed gene orf19.5565", "value": 0.43},
      {"measurement": "Induction expression ratio", "setting": "[1]; repressed gene orf19.6073 HMX1", "value": 0.59},
      {"measurement": "Induction expression ratio", "setting": "[1]; repressed gene orf19.6077", "value": 0.51},
      {"measurement": "Induction expression ratio", "setting": "[1]; repressed gene orf19.6245", "value": 0.67},
      {"measurement": "Induction expression ratio", "setting": "[1]; repressed gene orf19.716", "value": 0.51},
      {"measurement": "Induction expression ratio", "setting": "[1]; repressed gene orf19.742 ALD6", "value": 0.33},
      {"measurement": "Induction expression ratio", "setting": "[1]; repressed gene orf19.7502", "value": 0.67},
      {"measurement": "Induction expression ratio", "setting": "[1]; repressed gene orf19.7586 CHT3", "value": 0.66},
      {"measurement": "induction of gene CPD1 in RNA dot blotting", "setting": "[2]", "value": 10, "unit": "fold"}
    ]}
  ]
}
